Measured values as given in ChEMBL document CHEMBL1139487, “Discovery of corticotropin releasing factor 2 receptor selective sauvagine analogues for treatment of skeletal muscle atrophy” (J Med Chem, 2005).
Square brackets hold non-standard residues; d marks the D form. Peptide text beside a SMILES is read from it. 2Nal = N[C@@H](Cc1ccc2ccccc2c1)C(=O)O; pGlu = O=C1CC[C@@H](C(=O)O)N1

Experiments:
[1] = species: Mus musculus; experiment: Selectivity ratio of EC50s for mouse corticotropin releasing factor receptors 1 and 2
[2] = molecular target: Corticotropin-releasing factor receptor 2 (Mus musculus, UniProt Q60748); experiment: In vitro effective concentration for mouse corticotropin releasing factor 2 receptor
[3] = test system: Mus musculus; experiment: In vivo percentage inhibition against casting induced tibialis anterior mass loss in mouse at a dosage of 100 ug/kg/day; assay type: functional
[4] = test system: Mus musculus; experiment: In vivo percentage inhibition against casting induced tibialis anterior mass loss in mouse at a dosage of 10 ug/kg/day; assay type: functional
[5] = molecular target: Corticotropin-releasing factor receptor 2 (Mus musculus) (UniProt Q60748); experiment: In vitro agonistic activity against mouse corticotropin releasing factor 2 receptor; assay type: functional
[6] = test system: Mus musculus; experiment: In vivo percentage inhibition against casting induced tibialis anterior mass loss in mouse at a dosage of 30 ug/kg/day; assay type: functional
[7] = molecular target: T1, Corticotropin-releasing factor receptor 1 (Mus musculus) (UniProt P35347); experiment: In vitro agonistic activity against mouse corticotropin releasing factor 1 receptor; assay type: functional
T1 sequence (whole entry): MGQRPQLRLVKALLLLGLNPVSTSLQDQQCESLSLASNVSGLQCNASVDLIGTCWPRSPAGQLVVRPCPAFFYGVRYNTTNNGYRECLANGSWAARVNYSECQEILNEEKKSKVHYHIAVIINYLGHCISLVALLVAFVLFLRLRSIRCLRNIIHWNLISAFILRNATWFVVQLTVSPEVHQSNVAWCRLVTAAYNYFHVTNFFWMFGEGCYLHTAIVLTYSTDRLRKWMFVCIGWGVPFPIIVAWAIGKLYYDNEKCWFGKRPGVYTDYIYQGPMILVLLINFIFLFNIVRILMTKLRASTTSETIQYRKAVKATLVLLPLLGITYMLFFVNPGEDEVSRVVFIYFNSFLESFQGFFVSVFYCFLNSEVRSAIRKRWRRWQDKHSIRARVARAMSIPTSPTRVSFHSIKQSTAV

[8] = molecular target: T2, Corticotropin-releasing factor receptor 1 (Mus musculus, UniProt P35347); experiment: In vitro effective concentration for mouse corticotropin releasing factor 1 receptor
T2 sequence (P35347 whole entry): T1 sequence (whole entry)

[9] = test system: Mus musculus; experiment: In vivo percentage inhibition against casting induced tibialis anterior mass loss in mouse at a dosage of 300 ug/kg/day; assay type: functional; conditions: read-out: Inhibition

Sequence of Corticotropin-releasing factor receptor 2 (Mus musculus) (Q60748 whole entry): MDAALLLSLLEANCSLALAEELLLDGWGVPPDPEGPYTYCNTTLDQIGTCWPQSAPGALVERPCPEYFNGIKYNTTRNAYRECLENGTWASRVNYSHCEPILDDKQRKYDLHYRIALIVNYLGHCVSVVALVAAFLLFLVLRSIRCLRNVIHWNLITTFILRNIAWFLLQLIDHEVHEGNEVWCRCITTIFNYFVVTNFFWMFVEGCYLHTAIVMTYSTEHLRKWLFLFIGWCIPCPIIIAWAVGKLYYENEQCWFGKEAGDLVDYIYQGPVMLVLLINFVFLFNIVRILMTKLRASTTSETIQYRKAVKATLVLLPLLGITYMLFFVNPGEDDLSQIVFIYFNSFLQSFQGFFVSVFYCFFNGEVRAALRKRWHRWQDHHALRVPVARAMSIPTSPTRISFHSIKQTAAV
Sequence of Corticotropin-releasing factor receptor 2 (Q60748 whole entry): as above

## CC[C@H](C)[C@H](NC(=O)[C@@H](NC(=O)[C@H](CC(=O)O)NC(=O)[C@H](CC(C)C)NC(=O)[C@H](CC(C)C)NC(=O)[C@H](CC(C)C)NC(=O)[C@H](CCCN=C(N)N)NC(=O)[C@H](CC(N)=O)NC(=O)[C@H](CC(N)=O)NC(=O)[C@H](C)NC(=O)[C@H](C)NC(=O)[C@H](CCC(N)=O)NC(=O)[C@H](CCC(N)=O)NC(=O)[C@H](CCCCN)NC(=O)[C@H](CCC(=O)O)NC(=O)[C@H](CCCCN)NC(=O)[C@H](CCC(=O)O)NC(=O)[C@H](CCC(N)=O)NC(=O)[C@H](CCCCN)NC(=O)[C@H](CCC(=O)O)NC(=O)[C@@H](NC(=O)[C@H](CCC(=O)O)NC(=O)[C@@H](NC(=O)[C@H](CCSC)NC(=O)[C@H](CCCCN)NC(=O)[C@H](CCCN=C(N)N)NC(=O)[C@H](CC(C)C)NC(=O)[C@H](CC(C)C)NC(=O)[C@H](Cc1c[nH]c2ccccc12)NC(=O)[C@@H](NC(=O)[C@@H]1CCCN1C(=O)[C@H](CC(C)C)NC(=O)[C@H](CC(=O)O)NC(=O)[C@@H](NC(=O)[C@H](CO)NC(=O)[C@@H](NC(=O)[C@@H]1CCCN1C(=O)[C@@H]1CCCN1C(=O)CNC(=O)[C@@H]1CCC(=O)N1)[C@@H](C)CC)[C@@H](C)CC)[C@@H](C)O)[C@@H](C)CC)[C@@H](C)CC)[C@@H](C)O)C(=O)O
[1]
  Selectivity: > 66
[2]
  EC50: 15.2 nM
[3]
  inhibition in vivo at 0.1 mg/kg/day: 91%
[4]
  inhibition in vivo at 0.01 mg/kg/day: 30%
[5]
  Emax: 100%
[6]
  inhibition in vivo at 0.03 mg/kg/day: 84%
[7]
  Emax: 43%
[8]
  EC50: > 1000 nM

## CC[C@H](C)[C@H](NC(=O)[C@@H](NC(=O)[C@H](CC(=O)O)NC(=O)[C@H](CC(C)C)NC(=O)[C@H](CC(C)C)NC(=O)[C@H](CC(C)C)NC(=O)[C@H](CCCN=C(N)N)NC(=O)[C@H](CC(N)=O)NC(=O)[C@H](CC(N)=O)NC(=O)[C@H](C)NC(=O)[C@H](C)NC(=O)[C@H](CCC(N)=O)NC(=O)[C@H](CCC(N)=O)NC(=O)[C@H](CCCCN)NC(=O)[C@H](CCC(=O)O)NC(=O)[C@H](CCCCN)NC(=O)[C@H](CCC(=O)O)NC(=O)[C@H](CCC(N)=O)NC(=O)[C@H](CCCCN)NC(=O)[C@H](CCC(=O)O)NC(=O)[C@@H](NC(=O)[C@H](CCC(=O)O)NC(=O)[C@@H](NC(=O)[C@H](CCSC)NC(=O)[C@H](CCCCN)NC(=O)[C@H](CCCN=C(N)N)NC(=O)[C@H](CC(C)C)NC(=O)[C@H](CC(C)C)NC(=O)[C@H](Cc1ccc(O)cc1)NC(=O)[C@@H](NC(=O)[C@@H]1CCCN1C(=O)[C@H](CC(C)C)NC(=O)[C@H](CC(=O)O)NC(=O)[C@@H](NC(=O)[C@H](CO)NC(=O)[C@@H](NC(=O)[C@@H]1CCCN1C(=O)[C@@H]1CCCN1C(=O)CNC(=O)[C@@H]1CCC(=O)N1)[C@@H](C)CC)[C@@H](C)CC)[C@@H](C)CC)[C@@H](C)CC)[C@@H](C)CC)[C@@H](C)O)C(=O)O
[1]
  Selectivity: > 45
[3]
  inhibition in vivo at 0.1 mg/kg/day: 38%
[9]
  inhibition in vivo at 0.3 mg/kg/day: 58%
[5]
  Emax: 100%
[6]
  inhibition in vivo at 0.03 mg/kg/day: 24%
[7]
  Emax: 8%

## CC[C@H](C)[C@H](NC(=O)[C@@H](NC(=O)[C@H](CC(=O)O)NC(=O)[C@H](CC(C)C)NC(=O)[C@H](CC(C)C)NC(=O)[C@H](CC(C)C)NC(=O)[C@H](CCCN=C(N)N)NC(=O)[C@H](CC(N)=O)NC(=O)[C@H](CC(N)=O)NC(=O)[C@H](C)NC(=O)[C@H](C)NC(=O)[C@H](CCC(N)=O)NC(=O)[C@H](CCC(N)=O)NC(=O)[C@H](CCCCN)NC(=O)[C@H](CCC(=O)O)NC(=O)[C@H](CCCCN)NC(=O)[C@H](CCC(=O)O)NC(=O)[C@H](CCC(N)=O)NC(=O)[C@H](CCCCN)NC(=O)[C@H](CCC(=O)O)NC(=O)[C@@H](NC(=O)[C@H](CCC(=O)O)NC(=O)[C@@H](NC(=O)[C@H](CCSC)NC(=O)[C@H](CCCCN)NC(=O)[C@H](CCCN=C(N)N)NC(=O)[C@H](CC(C)C)NC(=O)[C@H](CC(C)C)NC(=O)[C@H](CC(C)C)NC(=O)[C@@H](NC(=O)[C@@H]1CCCN1C(=O)[C@H](CC(C)C)NC(=O)[C@H](CC(=O)O)NC(=O)[C@@H](NC(=O)[C@H](CO)NC(=O)[C@@H](NC(=O)[C@@H]1CCCN1C(=O)[C@@H]1CCCN1C(=O)CNC(=O)[C@@H]1CCC(=O)N1)[C@@H](C)CC)[C@@H](C)CC)[C@@H](C)CC)[C@@H](C)CC)[C@@H](C)CC)[C@@H](C)O)C(=O)O
[1]
  Selectivity: > 64
[2]
  EC50: 15.6 nM
[3]
  inhibition in vivo at 0.1 mg/kg/day: 91%
[4]
  inhibition in vivo at 0.01 mg/kg/day: 10%
[5]
  Emax: 88%
[6]
  inhibition in vivo at 0.03 mg/kg/day: 66%
[7]
  Emax: 72%
[8]
  EC50: > 1000 nM

## CC[C@H](C)[C@H](NC(=O)[C@@H](NC(=O)[C@H](CC(=O)O)NC(=O)[C@H](CC(C)C)NC(=O)[C@H](CC(C)C)NC(=O)[C@H](CC(C)C)NC(=O)[C@H](CCCN=C(N)N)NC(=O)[C@H](CC(N)=O)NC(=O)[C@H](CC(N)=O)NC(=O)[C@H](C)NC(=O)[C@H](C)NC(=O)[C@H](CCC(N)=O)NC(=O)[C@H](CCC(N)=O)NC(=O)[C@H](CCCCN)NC(=O)[C@H](CCC(=O)O)NC(=O)[C@H](CCCCN)NC(=O)[C@H](CCC(=O)O)NC(=O)[C@H](CCC(N)=O)NC(=O)[C@H](CCCCN)NC(=O)[C@H](CCC(=O)O)NC(=O)[C@@H](NC(=O)[C@H](CCC(=O)O)NC(=O)[C@@H](NC(=O)[C@H](CCSC)NC(=O)[C@H](CCCCN)NC(=O)[C@H](CCCN=C(N)N)NC(=O)[C@H](CC(C)C)NC(=O)[C@H](CC(C)C)NC(=O)[C@H](CCC(N)=O)NC(=O)[C@H](Cc1ccccc1)NC(=O)[C@@H]1CCCN1C(=O)[C@H](CC(C)C)NC(=O)[C@H](CC(=O)O)NC(=O)[C@@H](NC(=O)[C@H](CO)NC(=O)[C@@H](NC(=O)[C@@H]1CCCN1C(=O)[C@@H]1CCCN1C(=O)CNC(=O)[C@@H]1CCC(=O)N1)[C@@H](C)CC)[C@@H](C)CC)[C@@H](C)CC)[C@@H](C)CC)[C@@H](C)O)C(=O)O
[1]
  Selectivity: 62
[3]
  inhibition in vivo at 0.1 mg/kg/day: 46%
[9]
  inhibition in vivo at 0.3 mg/kg/day: 50%
[5]
  Emax: 100%
[6]
  inhibition in vivo at 0.03 mg/kg/day: 58%
[7]
  Emax: 64%

## CC[C@H](C)[C@H](NC(=O)[C@@H](NC(=O)[C@H](CC(=O)O)NC(=O)[C@H](CC(C)C)NC(=O)[C@H](CC(C)C)NC(=O)[C@H](CC(C)C)NC(=O)[C@H](CCCN=C(N)N)NC(=O)[C@H](CC(N)=O)NC(=O)[C@H](CC(N)=O)NC(=O)[C@H](C)NC(=O)[C@H](C)NC(=O)[C@H](CCC(N)=O)NC(=O)[C@H](CCC(N)=O)NC(=O)[C@H](CCCCN)NC(=O)[C@H](CCC(=O)O)NC(=O)[C@H](CCCCN)NC(=O)[C@H](CCC(=O)O)NC(=O)[C@H](CCC(N)=O)NC(=O)[C@H](CCCCN)NC(=O)[C@H](CCC(=O)O)NC(=O)[C@@H](NC(=O)[C@H](CCC(=O)O)NC(=O)[C@@H](NC(=O)[C@H](CCSC)NC(=O)[C@H](CCCCN)NC(=O)[C@H](CCCN=C(N)N)NC(=O)[C@H](CC(C)C)NC(=O)[C@H](Cc1ccc2ccccc2c1)NC(=O)[C@H](Cc1c[nH]c2ccccc12)NC(=O)[C@H](CC(C)C)NC(=O)[C@@H]1CCCN1C(=O)[C@H](CC(C)C)NC(=O)[C@H](CC(=O)O)NC(=O)[C@@H](NC(=O)[C@H](CO)NC(=O)[C@@H](NC(=O)[C@@H]1CCCN1C(=O)[C@@H]1CCCN1C(=O)CNC(=O)[C@@H]1CCC(=O)N1)[C@@H](C)CC)[C@@H](C)CC)[C@@H](C)CC)[C@@H](C)CC)[C@@H](C)O)C(=O)O ([pGlu]GPPISIDLPLW[2Nal]LRKMIEIEKQEKEKQQAANNRLLLDTI-OH)
[1]
  Selectivity: 19
[2]
  EC50: 3.3 nM
[3]
  inhibition in vivo at 0.1 mg/kg/day: 79%
[4]
  inhibition in vivo at 0.01 mg/kg/day: 53%
[5]
  Emax: 73%
[6]
  inhibition in vivo at 0.03 mg/kg/day: 45%
[7]
  Emax: 100%
[8]
  EC50: 63.4 nM
